Test results: publication PMC10388362, “Fluorescent Ligands Enable Target Engagement Studies for the Intracellular Allosteric Binding Site of the Chemokine Receptor CXCR2” (Journal of Medicinal Chemistry, 2023)
Several values for one entry are separate records, joined by “and”; a condition that tells them apart may be missing. Equal entries are not always repeated.

Assays:
CXCR2 [1] = biological target: T1, CXCR2 (Homo sapiens, UniProt P25025); test: Membrane-based NanoBRET association and dissociation kinetic assay; assay type: binding
T1 construct: Promega pNLF1-C (Nluc) #CXCR20TN00; host or cells: HEK293T, transient transfection (PEI)
T1 sequence (P25025 1-360): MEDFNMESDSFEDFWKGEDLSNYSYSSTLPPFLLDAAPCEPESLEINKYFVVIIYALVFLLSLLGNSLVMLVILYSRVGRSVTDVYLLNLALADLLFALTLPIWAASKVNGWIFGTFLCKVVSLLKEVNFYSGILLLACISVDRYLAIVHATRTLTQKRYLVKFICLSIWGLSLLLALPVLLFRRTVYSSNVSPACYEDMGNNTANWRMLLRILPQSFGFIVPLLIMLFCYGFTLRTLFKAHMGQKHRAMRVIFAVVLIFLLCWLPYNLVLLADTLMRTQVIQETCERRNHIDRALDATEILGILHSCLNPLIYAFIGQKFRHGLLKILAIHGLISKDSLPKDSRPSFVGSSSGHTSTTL
Procedure: 5 μL of a solution of the fluorescent ligand (9a) diluted to varying concentrations (final assay concentrations: 10–100 nM) in the assay buffer and 5 μL of the assay buffer were transferred to a 384-well plate. For the determination of nonspecific binding, we added a solution of a nonlabeled competitor dissolved in the assay buffer (3, final assay concentration: 10 μM) instead. After the addition of 5 μL of a furimazine solution (final assay dilution: 1:350 in assay buffer), plates were incubated for 3 min in the dark at ambient temperature. Subsequently, 20 μL of the membrane preparation (2 μg total protein/well) was added (final assay volume: 35 μL). BRET ratios were measured with a CLARIOstar microplate reader using 620/10 and 475/30 nm emission filters over time at ambient temperature or 37 °C. The obtained data were analyzed using the association kinetics (one ligand concentration) algorithm in PRISM9.5 (GraphPad) to determine association kinetics using a predetermined koff as a constraint.
5 μL of a solution of the fluorescent ligand (9a) diluted to varying concentrations (final assay concentrations: 10–100 nM) in the assay buffer and 5 μL of the assay buffer were transferred to a 384-well plate. In order to determine nonspecific binding, we added a solution of a nonlabeled competitor dissolved in the assay buffer (3, final assay concentration: 10 μM) instead of the 5 μL of the assay buffer. Then, 20 μL of the membrane preparation (2 μg total protein/well) was added, and plates were incubated for 4 h at ambient temperature in the dark. Subsequently, 5 μL of a vivazine solution (final assay dilution: 1:350 in assay buffer) was added. Plates were incubated for further 60 min in the dark at ambient temperature. Thereafter, 1 μL of a solution of a […] competitor dissolved in the assay buffer (3, final assay concentration: 10 μM) was added. For control experiments, we added 1 μL of the assay buffer instead of the competitor solution. BRET ratios were measured with a CLARIOstar microplate reader using 620/10 and 475/30 nm emission filters over time at ambient temperature or 37 °C. Specific BRET ratios were calculated as a difference of total and nonspecific binding. The obtained data were analyzed using the dissociation—one phase exponential decay algorithm in PRISM9.5 (GraphPad) to determine dissociation kinetics.

CXCR2 [2] = biological target: T1, CXCR2; test: Live cell NanoBRET saturation binding (HEK293T cells expressing CXCR2_Nluc)
Procedure: HEK293T cells were transfected with the plasmid (5.5 μg) for CXCR2_Nluc using polyethylenimine (PEI) as transfection reagent (PEI/DNA ratio 3:1). After 24 h at 37 °C and 5% CO2, the cells were detached with DMEM and transferred to a white F-bottom 384-well plate (10,000 cells/well), which was coated with 5 μL/well poly-D-lysine (0.1 mg/mL, dissolved in water), and incubated for further 24 h at 37 °C and 5% CO2. Subsequently, the cells were washed with phosphate-buffered saline (Gibco DPBS, with CaCl2 and MgCl2). The assay medium (Gibco DMEM/F12, 15 mM HEPES, no phenol red supplemented with 5% FBS) was added and the cells were incubated at 37 °C for 30 min. […]
After 120 min of incubation at 37 °C, 5 μL of a furimazine solution (final assay dilution: 1:2500, diluted with assay medium) was added. Subsequent to a further incubation of 5 min in the dark at 37 °C, BRET ratios were measured with a CLARIOstar microplate reader using 620/10 and 475/30 nm emission filters. Total, nonspecific and specific binding, which was calculated as a difference of total and nonspecific binding, were analyzed using the algorithms for one-site saturation binding in PRISM9.5 (GraphPad). To determine the inhibition constants (Ki) of the potential competitors, data were normalized to total and nonspecific binding and analyzed using the one-site-fit Ki equation in PRISM9.5 (GraphPad).

[3] = CXCR2_Nluc membranes, 37 °C, mean
[4] = CXCR2_Nluc membranes, room temperature, mean
[5] = membranes, 37 °C, 9a 10 nM, single determinations
[6] = membranes, 37 °C, 9a 10 nM, single determinations, koff fixed 0.00569 min-1
[7] = membranes, 37 °C, 9a 25 nM, single determinations
[8] = membranes, 37 °C, 9a 25 nM, single determinations, koff fixed 0.00569 min-1
[9] = membranes, 37 °C, 9a 50 nM, single determinations
[10] = membranes, 37 °C, 9a 50 nM, single determinations, koff fixed 0.00569 min-1
[11] = membranes, 37 °C, 9a 100 nM, single determinations
[12] = membranes, 37 °C, 9a 100 nM, single determinations, koff fixed 0.00569 min-1
[13] = membranes, room temperature, 9a 10 nM, single determinations
[14] = membranes, room temperature, 9a 25 nM, single determinations
[15] = membranes, room temperature, 9a 50 nM, single determinations
[16] = membranes, room temperature, 9a 100 nM, single determinations

koff (CXCR2 [1]; [3]): 9.48e-05 s⁻¹
kon (CXCR2 [1]; [3]): 32600 M⁻¹ s⁻¹
tR (CXCR2 [1]; [3]): 178.8 min
Kd (CXCR2 [1]; CXCR2_Nluc membranes, cell-free, 37 °C): 2.91 ± 0.27 nM
Kd (CXCR2 [1]; CXCR2_Nluc membranes, room temperature): 1.94 ± 0.27 nM
koff (CXCR2 [1]; [4]): 3.57e-05 s⁻¹
kon (CXCR2 [1]; [4]): 18300 M⁻¹ s⁻¹
residence time tr (CXCR2 [1]; [4]): 485.6 min
residence time (CXCR2 [1]; CXCR2_Nluc membranes, room temperature, mean, read-out: residence time tr): 486 ± 28 min
koff (CXCR2 [1]; [5]): 8.83e-05 s⁻¹
koff [min-1] (CXCR2 [1]; [5]): 0.00567 min⁻¹ and 0.00464 min⁻¹
tR (CXCR2 [1]; [5]): 188.6 min and 176.4 min and 215.5 min
kon (CXCR2 [1]; [6]): 42500 M⁻¹ s⁻¹
kon [M-1 min-1] (CXCR2 [1]; [6]): 52685.82 M⁻¹ s⁻¹ and 46570.12 M⁻¹ s⁻¹
koff (CXCR2 [1]; [7]): 0.000102 s⁻¹
koff [min-1] (CXCR2 [1]; [7]): 0.00658 min⁻¹ and 0.00473 min⁻¹
tR (CXCR2 [1]; [7]): 162.5 min and 152.0 min and 211.3 min
kon (CXCR2 [1]; [8]): 29600 M⁻¹ s⁻¹
kon [M-1 min-1] (CXCR2 [1]; [8]): 40515.73 M⁻¹ s⁻¹ and 31065.33 M⁻¹ s⁻¹
koff (CXCR2 [1]; [9]): 9.33e-05 s⁻¹
koff [min-1] (CXCR2 [1]; [9]): 0.0059 min⁻¹ and 0.00531 min⁻¹
tR (CXCR2 [1]; [9]): 178.6 min and 169.4 min and 188.3 min
kon (CXCR2 [1]; [10]): 26700 M⁻¹ s⁻¹
kon [M-1 min-1] (CXCR2 [1]; [10]): 29466.47 M⁻¹ s⁻¹ and 24036.28 M⁻¹ s⁻¹
koff (CXCR2 [1]; [11]): 0.000105 s⁻¹
koff [min-1] (CXCR2 [1]; [11]): 0.00726 min⁻¹ and 0.00487 min⁻¹
tR (CXCR2 [1]; [11]): 159.6 min and 137.7 min and 205.4 min
kon (CXCR2 [1]; [12]): 23300 M⁻¹ s⁻¹
kon [M-1 min-1] (CXCR2 [1]; [12]): 25508.45 M⁻¹ s⁻¹ and 19799.72 M⁻¹ s⁻¹
koff (CXCR2 [1]; [13]): 3.12e-05 s⁻¹
koff [min-1] (CXCR2 [1]; [13]): 0.00183 min⁻¹ and 0.00215 min⁻¹
tR (CXCR2 [1]; [13]): 534.2 min and 545.6 min and 464.7 min
koff (CXCR2 [1]; [14]): 2.9e-05 s⁻¹
koff [min-1] (CXCR2 [1]; [14]): 0.00253 min⁻¹ and 0.00232 min⁻¹
tR (CXCR2 [1]; [14]): 575.7 min and 394.8 min and 431.4 min
koff (CXCR2 [1]; [15]): 2.68e-05 s⁻¹
koff [min-1] (CXCR2 [1]; [15]): 0.00305 min⁻¹ and 0.00242 min⁻¹
tR (CXCR2 [1]; [15]): 619.6 min and 328.4 min and 413.1 min
koff (CXCR2 [1]; [16]): 2.58e-05 s⁻¹
koff [min-1] (CXCR2 [1]; [16]): 0.00219 min⁻¹ and 0.00238 min⁻¹
tR (CXCR2 [1]; [16]): 643.1 min and 457.0 min and 420.0 min
Kd (CXCR2 [2]; live HEK293T cells transiently expressing CXCR2_Nluc, 37 °C, read-out: Kd (equilibrium saturation binding)): 0.25 ± 0.01 nM
passage of the cell membrane (CXCR2 [2]; live HEK293T cells, inferred from cellular binding): able to pass the cell membrane
Structure (SMILES): Cc1ccc([C@H](Nc2c(Nc3cccc(C(=O)NCc4cn(CCOCCOCCOCCNC(=O)c5ccc(C(=O)[O-])c(-c6c7ccc(=[N+](C)C)cc-7oc7cc(N(C)C)ccc67)c5)nn4)c3O)c(=O)c2=O)C(C)(C)C)o1 [9a, (R)-4-((2-(2-(2-(2-(4-((3-((2-((2,2-Dimethyl-1-(5-methylfuran-2-yl)propyl)amino)-3,4-dioxocyclobut-1-en-1-yl)amino)-2-hydroxybenzamido)methyl)-1H-1,2,3-triazol-1-yl)ethoxy)ethoxy)ethoxy)ethyl)carbamoyl)-2-(6-(dimethylamino)-3-(dimethyliminio)-3H-xanthen-9-yl)benzoate]
